{"source": "ChEMBL document CHEMBL4507256", "about": "(2021)", "key": {"[1]": {"biological_target": "Type-2 angiotensin II receptor (Homo sapiens) (UniProt P50052)", "sequence (P50052 whole entry)": "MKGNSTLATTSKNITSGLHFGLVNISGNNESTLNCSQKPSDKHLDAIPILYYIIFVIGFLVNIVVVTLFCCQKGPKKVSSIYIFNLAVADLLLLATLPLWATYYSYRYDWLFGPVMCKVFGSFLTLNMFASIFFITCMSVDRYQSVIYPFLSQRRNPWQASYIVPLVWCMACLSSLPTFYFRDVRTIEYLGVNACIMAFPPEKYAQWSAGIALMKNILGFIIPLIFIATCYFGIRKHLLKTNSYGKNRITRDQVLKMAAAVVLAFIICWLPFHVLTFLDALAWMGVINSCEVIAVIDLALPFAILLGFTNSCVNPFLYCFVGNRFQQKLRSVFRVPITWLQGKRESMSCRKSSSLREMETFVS", "assay": "AT2 (h) CEREP ligand profiling", "conditions": "Compound concentration 10.0 uM; call rule not given here"}, "[2]": {"biological_target": "B2 bradykinin receptor (Homo sapiens) (UniProt P30411)", "sequence (P30411 whole entry)": "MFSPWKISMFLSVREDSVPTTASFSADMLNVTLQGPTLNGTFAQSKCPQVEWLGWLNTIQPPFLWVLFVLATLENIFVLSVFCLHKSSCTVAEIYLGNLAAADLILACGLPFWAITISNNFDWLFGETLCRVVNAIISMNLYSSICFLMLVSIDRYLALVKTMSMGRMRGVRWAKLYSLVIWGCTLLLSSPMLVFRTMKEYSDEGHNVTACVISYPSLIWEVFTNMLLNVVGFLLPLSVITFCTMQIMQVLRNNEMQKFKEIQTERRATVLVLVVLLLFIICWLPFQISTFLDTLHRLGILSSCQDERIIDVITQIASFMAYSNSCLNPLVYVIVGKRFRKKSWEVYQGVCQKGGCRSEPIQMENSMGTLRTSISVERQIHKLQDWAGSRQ", "assay": "B2 (h) CEREP ligand profiling", "conditions": "Compound concentration 10.0 uM"}, "[3]": {"biological_target": "C-C chemokine receptor type 1 (Homo sapiens) (UniProt P32246)", "sequence (P32246 whole entry)": "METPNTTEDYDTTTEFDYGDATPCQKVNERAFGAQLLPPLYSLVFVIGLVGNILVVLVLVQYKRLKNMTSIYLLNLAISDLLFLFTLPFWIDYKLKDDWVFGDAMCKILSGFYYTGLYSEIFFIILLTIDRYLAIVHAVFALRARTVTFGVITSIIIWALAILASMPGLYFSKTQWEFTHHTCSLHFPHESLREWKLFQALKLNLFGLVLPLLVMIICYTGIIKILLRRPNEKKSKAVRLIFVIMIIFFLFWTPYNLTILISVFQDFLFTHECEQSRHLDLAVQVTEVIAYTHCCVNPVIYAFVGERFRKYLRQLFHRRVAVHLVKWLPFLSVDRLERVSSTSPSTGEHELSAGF", "assay": "CCR1 (h) CEREP ligand profiling", "conditions": "Compound concentration 10.0 uM"}, "[4]": {"biological_target": "Substance-P receptor (Homo sapiens) (UniProt P25103)", "assay": "NK1 (h) CEREP ligand profiling", "conditions": "Compound concentration 10.0 uM"}, "[5]": {"biological_target": "Mu-type opioid receptor (Homo sapiens) (UniProt P35372)", "sequence (P35372 whole entry)": "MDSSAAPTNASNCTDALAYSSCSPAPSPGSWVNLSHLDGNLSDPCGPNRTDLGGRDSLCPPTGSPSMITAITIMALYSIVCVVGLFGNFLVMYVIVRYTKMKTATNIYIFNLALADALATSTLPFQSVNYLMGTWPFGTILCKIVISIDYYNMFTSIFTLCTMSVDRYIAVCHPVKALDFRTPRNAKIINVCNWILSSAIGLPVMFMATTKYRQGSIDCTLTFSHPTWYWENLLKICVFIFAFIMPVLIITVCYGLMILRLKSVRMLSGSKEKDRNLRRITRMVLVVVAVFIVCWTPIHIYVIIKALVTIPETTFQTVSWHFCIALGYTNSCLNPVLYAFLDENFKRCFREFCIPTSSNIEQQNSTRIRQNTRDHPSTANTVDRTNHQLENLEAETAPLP", "assay": "mu (h) (MOP) CEREP ligand profiling", "conditions": "Compound concentration 10.0 uM"}, "[6]": {"biological_target": "T1, 5-hydroxytryptamine receptor 2C (Homo sapiens) (UniProt P28335)", "T1 sequence (whole entry)": "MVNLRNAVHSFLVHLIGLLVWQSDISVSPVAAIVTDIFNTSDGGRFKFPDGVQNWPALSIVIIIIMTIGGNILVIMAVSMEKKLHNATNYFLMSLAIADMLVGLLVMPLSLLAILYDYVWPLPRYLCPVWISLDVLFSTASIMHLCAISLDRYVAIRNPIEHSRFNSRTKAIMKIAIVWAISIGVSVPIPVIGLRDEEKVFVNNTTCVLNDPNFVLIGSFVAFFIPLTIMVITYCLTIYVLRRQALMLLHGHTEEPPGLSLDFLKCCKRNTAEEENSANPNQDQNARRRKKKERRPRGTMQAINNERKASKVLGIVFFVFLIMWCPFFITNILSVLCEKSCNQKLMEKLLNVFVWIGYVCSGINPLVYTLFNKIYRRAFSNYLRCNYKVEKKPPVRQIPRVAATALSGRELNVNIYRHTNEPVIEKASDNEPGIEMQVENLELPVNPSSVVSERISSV", "assay": "5-HT2C (h) CEREP ligand profiling", "conditions": "Compound concentration 10.0 uM"}, "[7]": {"biological_target": "5-hydroxytryptamine receptor 7 (Homo sapiens) (UniProt P34969)", "sequence (P34969 whole entry)": "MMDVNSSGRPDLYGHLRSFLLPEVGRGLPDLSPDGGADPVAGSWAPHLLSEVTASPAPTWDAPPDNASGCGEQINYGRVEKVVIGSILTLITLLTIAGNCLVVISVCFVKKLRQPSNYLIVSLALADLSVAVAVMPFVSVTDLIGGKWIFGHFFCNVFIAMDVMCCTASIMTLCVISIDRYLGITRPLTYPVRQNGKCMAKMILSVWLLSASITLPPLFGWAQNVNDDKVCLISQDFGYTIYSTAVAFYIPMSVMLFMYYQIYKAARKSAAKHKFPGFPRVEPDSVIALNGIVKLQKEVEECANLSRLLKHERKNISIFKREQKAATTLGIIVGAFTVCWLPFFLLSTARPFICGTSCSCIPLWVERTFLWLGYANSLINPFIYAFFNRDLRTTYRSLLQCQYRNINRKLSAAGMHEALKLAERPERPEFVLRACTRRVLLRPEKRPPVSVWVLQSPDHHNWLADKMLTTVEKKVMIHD", "assay": "5-HT7 (h) CEREP ligand profiling", "conditions": "Compound concentration 10.0 uM"}, "[8]": {"biological_target": "Somatostatin receptor (Homo sapiens) (UniProt P35346+P30874+P31391+P30872+P32745)", "assay": "sst CEREP ligand profiling", "format": "protein assay", "conditions": "Compound concentration 10.0 uM"}, "[9]": {"biological_target": "Vasopressin V1a receptor (Homo sapiens) (UniProt P37288)", "sequence (P37288 whole entry, looked up)": "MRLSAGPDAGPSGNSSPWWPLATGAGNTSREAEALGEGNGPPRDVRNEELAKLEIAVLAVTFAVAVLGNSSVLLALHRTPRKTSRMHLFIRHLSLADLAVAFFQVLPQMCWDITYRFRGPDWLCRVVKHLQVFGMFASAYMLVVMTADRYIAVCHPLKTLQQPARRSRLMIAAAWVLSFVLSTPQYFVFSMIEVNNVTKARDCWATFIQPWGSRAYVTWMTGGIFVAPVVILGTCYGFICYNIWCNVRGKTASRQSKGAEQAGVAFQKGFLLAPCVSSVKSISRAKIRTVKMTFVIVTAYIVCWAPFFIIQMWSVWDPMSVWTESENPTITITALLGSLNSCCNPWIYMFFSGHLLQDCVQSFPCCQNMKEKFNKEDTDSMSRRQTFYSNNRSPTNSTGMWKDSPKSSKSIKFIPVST", "assay": "V1a (h) CEREP ligand profiling", "conditions": "Compound concentration 10.0 uM"}, "[10]": {"biological_target": "Adenosine receptor A2a (Homo sapiens) (UniProt P29274)", "sequence (P29274 whole entry)": "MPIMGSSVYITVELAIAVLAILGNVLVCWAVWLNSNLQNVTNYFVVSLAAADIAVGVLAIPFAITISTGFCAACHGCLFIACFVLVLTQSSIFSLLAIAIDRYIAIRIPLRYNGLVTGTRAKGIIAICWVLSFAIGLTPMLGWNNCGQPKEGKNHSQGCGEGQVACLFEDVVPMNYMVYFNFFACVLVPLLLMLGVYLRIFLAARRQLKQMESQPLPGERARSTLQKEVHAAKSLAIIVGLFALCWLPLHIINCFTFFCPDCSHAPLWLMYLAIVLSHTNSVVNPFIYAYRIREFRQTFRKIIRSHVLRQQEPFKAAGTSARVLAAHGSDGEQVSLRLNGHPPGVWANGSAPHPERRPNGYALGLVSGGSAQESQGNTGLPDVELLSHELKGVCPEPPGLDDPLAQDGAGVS", "assay": "A2A (h) CEREP ligand profiling", "conditions": "Compound concentration 10.0 uM"}, "[11]": {"biological_target": "Bombesin receptor (Homo sapiens) (UniProt P28336+P32247+P30550)", "sequence (P28336 whole entry, looked up)": "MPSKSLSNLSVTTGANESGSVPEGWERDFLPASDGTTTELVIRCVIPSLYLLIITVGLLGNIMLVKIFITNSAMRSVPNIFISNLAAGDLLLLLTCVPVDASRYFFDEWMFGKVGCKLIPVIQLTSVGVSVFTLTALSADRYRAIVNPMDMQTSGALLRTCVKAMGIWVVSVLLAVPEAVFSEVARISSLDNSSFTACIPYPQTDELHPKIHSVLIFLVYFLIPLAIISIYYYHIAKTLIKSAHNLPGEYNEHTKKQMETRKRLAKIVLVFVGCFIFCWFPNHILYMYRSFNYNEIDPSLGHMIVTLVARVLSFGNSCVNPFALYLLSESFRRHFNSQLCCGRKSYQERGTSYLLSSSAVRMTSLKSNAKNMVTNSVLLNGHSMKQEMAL", "sequence (P30550 whole entry, looked up)": "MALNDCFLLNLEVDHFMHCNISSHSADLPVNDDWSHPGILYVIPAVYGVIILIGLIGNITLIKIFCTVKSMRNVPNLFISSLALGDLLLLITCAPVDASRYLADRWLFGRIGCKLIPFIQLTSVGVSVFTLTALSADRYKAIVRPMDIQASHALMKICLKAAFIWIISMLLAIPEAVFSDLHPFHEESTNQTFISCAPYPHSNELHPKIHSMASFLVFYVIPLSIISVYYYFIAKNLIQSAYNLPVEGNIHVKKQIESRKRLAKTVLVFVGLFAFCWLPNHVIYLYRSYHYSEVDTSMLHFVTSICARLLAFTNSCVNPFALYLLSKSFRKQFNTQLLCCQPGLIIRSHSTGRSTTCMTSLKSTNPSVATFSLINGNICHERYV", "sequence (P32247 whole entry, looked up)": "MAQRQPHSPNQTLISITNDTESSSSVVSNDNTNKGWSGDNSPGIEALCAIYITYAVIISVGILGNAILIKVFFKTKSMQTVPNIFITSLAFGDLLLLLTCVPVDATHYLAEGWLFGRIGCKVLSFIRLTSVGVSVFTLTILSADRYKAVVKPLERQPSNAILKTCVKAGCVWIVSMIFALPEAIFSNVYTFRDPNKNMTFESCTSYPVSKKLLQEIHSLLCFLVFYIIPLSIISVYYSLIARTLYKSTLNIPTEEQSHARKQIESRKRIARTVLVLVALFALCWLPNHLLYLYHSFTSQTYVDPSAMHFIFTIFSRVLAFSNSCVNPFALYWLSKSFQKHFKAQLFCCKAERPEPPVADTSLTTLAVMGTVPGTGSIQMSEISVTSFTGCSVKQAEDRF", "assay": "BB (non-select) CEREP ligand profiling", "format": "protein assay", "conditions": "Compound concentration 10.0 uM"}, "[12]": {"biological_target": "D(1B) dopamine receptor (Homo sapiens) (UniProt P21918)", "assay": "D5 (h) CEREP ligand profiling", "conditions": "Compound concentration 10.0 uM"}, "[13]": {"biological_target": "Platelet-derived growth factor receptor (Homo sapiens) (UniProt P09619+P16234)", "assay": "PDGF CEREP ligand profiling", "format": "protein-complex assay", "conditions": "Compound concentration 10.0 uM"}, "[14]": {"biological_target": "Histamine H1 receptor (Homo sapiens) (UniProt P35367)", "sequence (P35367 whole entry)": "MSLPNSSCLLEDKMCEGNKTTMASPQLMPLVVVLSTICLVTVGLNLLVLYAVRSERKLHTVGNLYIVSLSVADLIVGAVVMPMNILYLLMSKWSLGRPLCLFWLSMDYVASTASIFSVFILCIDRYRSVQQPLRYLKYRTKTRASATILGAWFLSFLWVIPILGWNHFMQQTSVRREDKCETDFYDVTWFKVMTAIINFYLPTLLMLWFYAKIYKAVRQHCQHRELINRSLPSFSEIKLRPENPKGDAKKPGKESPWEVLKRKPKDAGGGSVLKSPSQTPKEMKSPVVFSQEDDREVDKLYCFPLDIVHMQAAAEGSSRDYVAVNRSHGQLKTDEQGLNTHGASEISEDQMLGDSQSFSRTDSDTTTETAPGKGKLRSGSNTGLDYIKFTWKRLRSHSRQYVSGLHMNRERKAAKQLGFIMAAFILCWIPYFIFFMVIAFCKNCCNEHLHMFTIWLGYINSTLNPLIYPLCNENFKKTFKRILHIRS", "assay": "H1 (h) CEREP ligand profiling", "conditions": "Compound concentration 10.0 uM"}, "[15]": {"biological_target": "T2, Muscarinic acetylcholine receptor M1 (Homo sapiens) (UniProt P11229)", "T2 sequence (whole entry)": "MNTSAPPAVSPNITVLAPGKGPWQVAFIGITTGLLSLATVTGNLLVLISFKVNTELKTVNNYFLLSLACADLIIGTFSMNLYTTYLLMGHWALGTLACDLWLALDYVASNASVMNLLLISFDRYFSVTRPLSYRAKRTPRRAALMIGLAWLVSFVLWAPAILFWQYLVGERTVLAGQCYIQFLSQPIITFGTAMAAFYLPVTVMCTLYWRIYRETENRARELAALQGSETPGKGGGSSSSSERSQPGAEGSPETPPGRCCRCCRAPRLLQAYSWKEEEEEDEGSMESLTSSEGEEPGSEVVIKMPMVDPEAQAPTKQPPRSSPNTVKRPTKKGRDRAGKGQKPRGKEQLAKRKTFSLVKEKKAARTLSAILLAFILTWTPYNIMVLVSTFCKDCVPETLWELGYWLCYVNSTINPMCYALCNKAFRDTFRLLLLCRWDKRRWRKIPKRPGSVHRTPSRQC", "assay": "M1 (h) CEREP ligand profiling", "conditions": "Compound concentration 10.0 uM"}, "[16]": {"biological_target": "Muscarinic acetylcholine receptor M3 (Homo sapiens) (UniProt P20309)", "assay": "M3 (h) CEREP ligand profiling", "conditions": "Compound concentration 10.0 uM"}, "[17]": {"biological_target": "T3, Muscarinic acetylcholine receptor M5 (Homo sapiens) (UniProt P08912)", "T3 sequence (whole entry)": "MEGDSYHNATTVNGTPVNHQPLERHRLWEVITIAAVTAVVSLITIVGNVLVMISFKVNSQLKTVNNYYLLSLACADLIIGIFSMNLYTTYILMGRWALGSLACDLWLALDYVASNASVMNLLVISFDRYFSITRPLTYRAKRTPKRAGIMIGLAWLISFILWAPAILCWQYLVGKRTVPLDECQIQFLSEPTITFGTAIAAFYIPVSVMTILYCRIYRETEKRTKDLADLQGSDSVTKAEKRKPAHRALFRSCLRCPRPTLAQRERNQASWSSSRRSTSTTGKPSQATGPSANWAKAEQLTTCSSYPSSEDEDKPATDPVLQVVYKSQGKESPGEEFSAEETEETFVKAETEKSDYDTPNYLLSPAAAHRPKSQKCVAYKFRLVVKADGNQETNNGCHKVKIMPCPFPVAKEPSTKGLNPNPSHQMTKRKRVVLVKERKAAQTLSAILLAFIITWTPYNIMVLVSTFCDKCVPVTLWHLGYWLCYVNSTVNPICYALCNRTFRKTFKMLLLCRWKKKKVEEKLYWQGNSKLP", "assay": "M5 (h) CEREP ligand profiling", "conditions": "Compound concentration 10.0 uM"}, "[18]": {"biological_target": "Substance-K receptor (Homo sapiens) (UniProt P21452)", "assay": "NK2 (h) CEREP ligand profiling", "conditions": "Compound concentration 10.0 uM"}, "[19]": {"biological_target": "Nociceptin receptor (Homo sapiens) (UniProt P41146)", "assay": "ORL1 (h) (NOP) CEREP ligand profiling", "conditions": "Compound concentration 10.0 uM"}, "[20]": {"biological_target": "P2X receptor (Rattus norvegicus) (UniProt P51579+P49653+P51578+Q64663+P47824+P51577+P49654)", "assay": "P2X CEREP ligand profiling", "format": "protein assay", "conditions": "Compound concentration 10.0 uM"}, "[21]": {"biological_target": "Calcium-activated potassium channel (Homo sapiens) (UniProt Q92952+Q9UGI6+Q12791+O15554+Q9H2S1+A8MYU2)", "assay": "SK+ channel CEREP ligand profiling", "format": "protein assay", "conditions": "Compound concentration 10.0 uM"}, "[22]": {"biological_target": "Transient receptor potential cation channel subfamily A member 1 (Homo sapiens, UniProt O75762)", "assay": "Fluorometric imaging plate reader (FLIPR)-based Ca2+ assay", "parameters": "compound concentration 0.03-0.3 uM"}, "[23]": {"biological_target": "Casein kinase I isoform gamma-3 (Homo sapiens) (UniProt Q9Y6M4)", "conditions": "Compound concentration 1000.0 nM"}, "[24]": {"biological_target": "Serine/threonine-protein kinase 17A (Homo sapiens) (UniProt Q9UEE5)", "sequence (Q9UEE5 whole entry)": "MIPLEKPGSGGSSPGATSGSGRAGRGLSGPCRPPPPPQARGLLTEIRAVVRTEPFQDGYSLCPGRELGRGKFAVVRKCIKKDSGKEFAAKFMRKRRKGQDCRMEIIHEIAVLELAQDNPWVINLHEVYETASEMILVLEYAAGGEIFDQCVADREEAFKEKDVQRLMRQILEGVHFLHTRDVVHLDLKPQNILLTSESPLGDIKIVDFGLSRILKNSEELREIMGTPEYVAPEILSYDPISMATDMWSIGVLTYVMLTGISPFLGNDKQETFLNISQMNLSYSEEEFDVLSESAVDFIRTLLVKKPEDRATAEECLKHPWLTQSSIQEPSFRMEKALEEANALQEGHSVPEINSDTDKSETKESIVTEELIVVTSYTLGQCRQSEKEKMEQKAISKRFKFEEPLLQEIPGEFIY", "conditions": "Compound concentration 1000.0 nM"}, "[25]": {"biological_target": "Beta-adrenergic receptor kinase 1 (Homo sapiens) (UniProt P25098)", "conditions": "Compound concentration 1000.0 nM"}, "[26]": {"biological_target": "Beta-1 adrenergic receptor (Homo sapiens) (UniProt P08588)", "conditions": "Compound concentration 10.0 uM"}}}
{"smiles": "CCC(=N\\O)/C(C)=C/c1ccc(F)cc1", "note": "[A-079]", "values": [{"measurement": "inhibition", "setting": "[1]", "value": -9, "unit": "%"}, {"measurement": "inhibition", "setting": "[2]", "value": 2, "unit": "%"}, {"measurement": "inhibition", "setting": "[3]", "value": 1, "unit": "%"}, {"measurement": "inhibition", "setting": "[4]", "value": -3, "unit": "%"}, {"measurement": "inhibition", "setting": "[5]", "value": 12, "unit": "%"}, {"measurement": "inhibition", "setting": "[6]", "value": 6, "unit": "%"}, {"measurement": "inhibition", "setting": "[7]", "value": 17, "unit": "%"}, {"measurement": "inhibition", "setting": "[8]", "value": -4, "unit": "%"}, {"measurement": "inhibition", "setting": "[9]", "value": -3, "unit": "%"}, {"measurement": "inhibition", "setting": "[10]", "value": 8, "unit": "%"}, {"measurement": "inhibition", "setting": "[11]", "value": -3, "unit": "%"}, {"measurement": "inhibition", "setting": "[12]", "value": -8, "unit": "%"}, {"measurement": "inhibition", "setting": "[13]", "value": -6, "unit": "%"}, {"measurement": "inhibition", "setting": "[14]", "value": 4, "unit": "%"}, {"measurement": "inhibition", "setting": "[15]", "value": 8, "unit": "%"}, {"measurement": "inhibition", "setting": "[16]", "value": 6, "unit": "%"}, {"measurement": "inhibition", "setting": "[17]", "value": -4, "unit": "%"}, {"measurement": "inhibition", "setting": "[18]", "value": 2, "unit": "%"}, {"measurement": "inhibition", "setting": "[19]", "value": -5, "unit": "%"}, {"measurement": "inhibition", "setting": "[20]", "value": -2, "unit": "%"}, {"measurement": "inhibition", "setting": "[21]", "value": -5, "unit": "%"}]}
{"smiles": "CCC(=N\\O)/C(C)=C/c1ccc(F)c(C)c1", "note": "[A-226]", "values": [{"measurement": "IC50", "setting": "[22]", "value": "> 100 µM (not active)"}, {"measurement": "residual activity", "setting": "[23]", "value": 100, "unit": "%"}, {"measurement": "residual activity", "setting": "[24]", "value": 73, "unit": "%"}, {"measurement": "residual activity", "setting": "[25]", "value": 100, "unit": "%"}, {"measurement": "inhibition", "setting": "[26]", "value": 10.2, "unit": "%"}]}
